Where two headings read alike, the source gives them in different places.
How the values were obtained:
hCB2 [1] = molecular target: T1, hCB2 (Homo sapiens, UniProt P34972); assay: Radioligand competition binding with [3H]-CP 55,940 on hCB2-expressing HEK membranes; conditions: for hCB2 displacement of [3H]-CP 55,940 in 10 μM screen (in words): 10 μM heterologous competition screen, cut-off 60%; for inhibition at 10 µM: 1 h, read-out: CB2 binding extent at 10 μM (%) (±SEM); for Reduction in hCB2 binding affinity compared to 15: compared to methylpiperazinyl-15; for Ki: heterologous competition vs [3H]-CP 55,940, read-out: CB2 pKi (±SEM) (converted)
T1 construct: expressed in transfected cells; host or cells: HEK Flp-in
T1 sequence (P34972 whole entry): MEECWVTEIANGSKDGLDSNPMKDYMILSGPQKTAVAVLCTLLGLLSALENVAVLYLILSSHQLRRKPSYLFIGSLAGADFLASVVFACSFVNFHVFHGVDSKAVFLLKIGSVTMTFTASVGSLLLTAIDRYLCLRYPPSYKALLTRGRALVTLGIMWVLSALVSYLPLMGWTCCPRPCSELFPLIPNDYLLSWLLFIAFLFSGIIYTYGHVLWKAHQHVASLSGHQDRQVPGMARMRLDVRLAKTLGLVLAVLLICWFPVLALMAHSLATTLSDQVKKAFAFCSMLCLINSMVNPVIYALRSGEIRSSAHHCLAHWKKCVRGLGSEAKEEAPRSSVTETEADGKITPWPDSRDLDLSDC

hCB2 [2] = molecular target: T1, hCB2; assay: pERK AlphaLISA assay, HEK Flp-in hCB2 cells; type: cell-based; conditions: for EC50: 4 min stimulation, 14 approximate (low potency), read-out: pERK (4 min) pEC50 (±SEM) (converted); for Time of maximal pERK response: time course experiment; for logR [log(τ/KA)] (±SEM) pERK: operational model transduction ratio
hCB2 [3] = molecular target: T1, hCB2; assay: hCB2 internalisation assay (immunocytochemistry of surface receptor), HEK Flp-in hCB2 cells; type: cell-based; design: Emax: dose or concentration left out as unconfirmed; conditions: for logR [log(τ/KA)] (±SEM) Internalisation: operational model transduction ratio
hCB2 [4] = molecular target: T1, hCB2; assay: Real-time CAMYEL BRET cAMP assay, forskolin-stimulated HEK Flp-in hCB2 cells; type: cell-based; conditions: for EC50: 10 and 14 approximate (non-hCB2-mediated effects), read-out: cAMP (5 min) pEC50 (±SEM) (converted); for logR [log(τ/KA)] (±SEM) cAMP: operational model transduction ratio
Procedure: Cellular cAMP levels were measured using a real-time BRET biosensor (CAMYEL) as previously described ([Cawston et al., 2013]). In brief, cells were seeded in 10 cm dishes one day prior to transfection. The medium was then replaced and cells transfected with 5 μg of pcDNA3L-His-CAMYEL (ATCC, Manassas, VA, United States) using linear PEI (MW 25 kDa; Polysciences, Warrington, PA, United States) with a DNA:PEI ratio of 1:6. Approximately 24 h after transfection, cells were trypsinised and re-plated in poly-D-lysine treated white 96-well plates (Corning), at a density of 5–6 × 10^4 cells per well. For experiments involving pertussis toxin (PTX; Sigma-Aldrich) pre-treatment, cells were seeded in half the usual volume of medium, and then ∼5 h later, 2× concentrated PTX or vehicle (50% glycerol, […] Tris–HCl pH 7.5, 10 mM glycine, 500 mM NaCl) were prepared in medium and added to the existing plating medium (giving rise to a final PTX concentration of 100 ng mL^-1). Approximately 24 h after plating (or 16–20 h after applying PTX/vehicle in experiments involving PTX treatment), cells were washed once with Hank’s Balanced Salt Solution (HBSS, Thermo Fisher Scientific, catalogue #14025-134), and then equilibrated for 30 min in HBSS supplemented with 1 mg mL^-1 BSA. Coelenterazine h (final concentration 5 μM; NanoLight Technologies, Pinetop, AZ, United States) was added to each well and incubated for 5 min. Forskolin was added (final concentration 5 μM) and incubated for 6 min (allowing enough time for the induced cAMP increase to plateau), prior to vehicle/drug addition. All drugs and reagents were prepared in HBSS supplemented with 1 mg mL^-1 BSA. SR 144528 was a generous gift from Roche (Basel, Switzerland).
Assays were carried out in technical duplicate. Emissions were detected at 460 nm (Rluc) and 535 nm (YFP) with either a LUMIstar® Omega luminometer (BMG Labtech, Ortenberg, Germany) or CLARIOstar® (BMG Labtech). BRET ratios (535 nm emissions/460 nm emissions, where an increase in ratio corresponds to a decrease in cAMP) were normalised to pre-forskolin reads (i.e., with coelenterazine h present) to remove any variability present prior to addition of forskolin and drug/vehicle. A Lowess curve (GraphPad Prism) was fitted to individual technical replicates within an assay so that cAMP signalling data could be extrapolated from any time point as opposed to only those that were empirically measured (typically every 30–60 s). Data were normalised to matched vehicle (0%) and forskolin (100%) treatments, allowing compilation of data from independent experiments.

hCB1 = molecular target: T2, hCB1 (Homo sapiens, UniProt P21554); assay: Radioligand competition binding screen with [3H]-CP 55,940 on hCB1-expressing HEK membranes; conditions: for CB1 binding extent at 10 μM (%) (±SEM): 10 μM compound, displacement of 0.75 nM [3H]-CP 55,940; for CB2 selectivity over CB1 (in words): from CB1 binding at 10 μM versus CB2 affinity
T2 construct: expressed in transfected cells; host or cells: HEK (membranes)
T2 sequence (P21554 whole entry): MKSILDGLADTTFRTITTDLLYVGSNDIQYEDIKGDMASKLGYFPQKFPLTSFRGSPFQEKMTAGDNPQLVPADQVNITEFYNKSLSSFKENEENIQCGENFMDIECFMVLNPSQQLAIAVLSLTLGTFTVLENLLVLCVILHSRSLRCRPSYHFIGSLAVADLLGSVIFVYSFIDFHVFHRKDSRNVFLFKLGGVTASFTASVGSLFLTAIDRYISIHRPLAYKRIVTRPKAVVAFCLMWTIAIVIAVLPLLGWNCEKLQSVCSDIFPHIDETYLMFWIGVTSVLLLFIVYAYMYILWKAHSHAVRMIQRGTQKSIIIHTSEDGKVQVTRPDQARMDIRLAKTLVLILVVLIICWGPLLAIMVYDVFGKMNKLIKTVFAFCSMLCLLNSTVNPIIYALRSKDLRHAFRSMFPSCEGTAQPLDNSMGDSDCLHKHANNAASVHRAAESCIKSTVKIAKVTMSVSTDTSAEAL

HEK Flp-in wt cells = assay: CAMYEL cAMP assay in HEK Flp-in wt cells (non-hCB2-mediated effects); type: cell-based, human; conditions: for Non-hCB2-mediated effects on cAMP (in words): HEK Flp-in wt
hCB2 [5] = molecular target: T1, hCB2; assay: Comparison of efficacy/potency and operational-model bias analysis between hCB2 pathways, reference CP 55,940; type: cell-based; conditions: for Internalisation – pERK Bias factor / cAMP – internalisation Bias factor / cAMP – pERK Bias factor: 10^ΔΔlogR; for Internalisation – pERK ΔΔlogR (±SEM) / cAMP – internalisation ΔΔlogR (±SEM) / cAMP – pERK ΔΔlogR (±SEM): relative to reference ligand CP 55,940
[6] = 10 μM compound, displacement of 0.5 nM [3H]-CP 55,940
[7] = 5 min post-drug, 5 μM forskolin

## CCOc1nc(NC23CC4CC(CC(C4)C2)C3)nc(N2CCN(CCCCCCNC(=O)OC(C)(C)C)CC2)n1 [Compound 9, tert-Butyl N-(6(4-(4-(Adamantan-1-yl)Amino)-6-Ethoxy-1,3,5-Triazin-2-yl)Piperazin-1-yl)Hexyl) Carbamate]
hCB2 [1]
  hCB2 displacement of [3H]-CP 55,940 in 10 μM screen (in words): moderate binders
hCB2 [1]; [6]
  inhibition at 10 µM: 51.9%

## CCOc1nc(NC23CC4CC(CC(C4)C2)C3)nc(N2CCN(CCN)CC2)n1 [Compound 11, N-(Adamantan-1-yl)-4-(4-(2-Aminoethyl)Piperazin-1-yl)-6-Ethoxy-1,3,5-Triazin-2-Amine]
hCB2 [1]
  hCB2 displacement of [3H]-CP 55,940 in 10 μM screen (in words): moderate binders
hCB2 [1]; [6]
  inhibition at 10 µM: 40.1%

## CCOc1nc(NC23CC4CC(CC(C4)C2)C3)nc(N2CCN(CCOCCOCCN)CC2)n1 [Compound 13, N-(Adamantan-1-yl)-4-(4-(2-(2-(2-Aminoethoxy) Ethoxy)Ethyl)Piperazin-1-yl)-6-Ethoxy-1,3,5-Triazin-2-Amine]
hCB2 [2]; 4 min
  Behaviour in pERK pathway (in words): weak partial agonists
hCB2 [2]
  EC50: 537 nM
  Time of maximal pERK response: 4 min
hCB2 [3]; 1 h stimulation
  Behaviour in internalisation pathway (in words): neutral antagonist
  Internalisation (1 h) pEC50 (±SEM): Not Measurable
hCB2 [3]; read-out: Internalisation (1 h) Emax (±SEM), 1 h stimulation, change in surface hCB2 relative to vehicle-treated (100%), for 13 efficacy at 10 μM
  Emax at 10 µM: 6.2%
hCB2 [4]; 5 μM forskolin
  Behaviour in cAMP pathway (in words): unconventional transient inverse agonist
  Time to maximum cAMP effect after drug addition: ~4 min
  Time to return to cAMP concentration induced by forskolin alone: 10 to 15 min
hCB2 [4]; [7]
  EC50: 794 nM
hCB2 [4]; PTX 100 ng mL-1 pre-treatment 16–20 h
  PTX sensitivity of cAMP signal (in words): completely PTX-sensitive
hCB2 [1]; [6]
  inhibition at 10 µM: 81.1%
hCB2 [1]
  Reduction in hCB2 binding affinity compared to 15: 2–3 log units
  Ki: 1820 nM
hCB1
  CB1 binding extent at 10 μM (%) (±SEM): 29.6 (7.6) %
  CB2 selectivity over CB1 (in words): likely also CB2-selective
HEK Flp-in wt cells
  Non-hCB2-mediated effects on cAMP (in words): did not exhibit any measurable non-hCB2-mediated effects

## CCOc1nc(Cl)nc(NC2CCCC2)n1 [Compound 1, 4-Chloro-N-cyclopentyl-6-ethoxy-1,3,5-triazin-2-amine]
hCB2 [1]
  hCB2 displacement of [3H]-CP 55,940 in 10 μM screen (in words): failed to displace, or barely displaced
hCB2 [1]; [6]
  inhibition at 10 µM: -8.1%

## CCOc1nc(NC23CC4CC(CC(C4)C2)C3)nc(N2CCN(CCCCCCN)CC2)n1 [Compound 12, N-(Adamantan-1-yl)-4-(4-(6-Aminohexyl)Piperazin-1-yl)-6-Ethoxy-1,3,5-Triazin-2-Amine]
hCB2 [1]
  hCB2 displacement of [3H]-CP 55,940 in 10 μM screen (in words): moderate binders
hCB2 [1]; [6]
  inhibition at 10 µM: 43.5%

## CCCCCCC(C)(C)c1ccc([C@@H]2C[C@H](O)CC[C@H]2CCCO)c(O)c1 [CP 55,940, reference compound]
hCB2 [2]
  pERK potency lower than that for cAMP: approximately 0.5 log unit
  logR [log(τ/KA)] (±SEM) pERK: 8.05 (0.03)
  Time of maximal pERK response: 4 min
hCB2 [2]; EC50 versus Kd
  pERK potency lower than affinity: ~10 fold
hCB2 [3]; 1 h stimulation
  Starting surface hCB2 internalised: ~66%
hCB2 [3]
  logR [log(τ/KA)] (±SEM) Internalisation: 8.76 (0.1)
hCB2 [3]; read-out: Internalisation (1 h) Emax (±SEM)
  Emax: -65.1%
hCB2 [4]
  logR [log(τ/KA)] (±SEM) cAMP: 8.52 (0.02)
hCB2 [4]; pEC50 versus pKd
  cAMP potency lower than binding affinity: ~0.4 log units
hCB2 [4]; read-out: cAMP (5 min) Emax (±SEM)
  Emax: -41.7%
hCB2 [1]; [6]
  CB2 binding extent at 10 μM (%) (±SEM): 100.0 (0.0) %
hCB1
  CB1 binding extent at 10 μM (%) (±SEM): 100.0 (0.0) %
HEK Flp-in wt cells
  Non-hCB2-mediated effects on cAMP (in words): least pronounced non-hCB2 signalling profile
hCB2 [5]; relative to CP 55,940
  Internalisation – pERK Bias factor: 1.0
  cAMP – internalisation Bias factor: 1.0
  cAMP – pERK Bias factor: 1.0
hCB2 [5]
  Internalisation – pERK ΔΔlogR (±SEM): –0.02 (0.11)
  cAMP – internalisation ΔΔlogR (±SEM): 0.01 (0.10)
  cAMP – pERK ΔΔlogR (±SEM): 0.00 (0.04)

## SR 144528 [reference compound]
hCB2 [4]
  PTX sensitivity of cAMP signal (in words): PTX-sensitive
  Time to maximum cAMP effect after drug addition: approximately 6 min
  cAMP (5 min) Emax (±SEM): 55.4%
HEK Flp-in wt cells
  Non-hCB2-mediated effects on cAMP (in words): did not exhibit any measurable non-hCB2-mediated effects

## CCOc1nc(NC2CCCC2)nc(N2CCN(CCOCCOCCN)CC2)n1 [Compound 6, 4-(4-(2-(2-(2-Aminoethoxy)Ethoxy)Ethyl)Piperazin-1-yl)-N-Cyclopentyl-6-Ethoxy-1,3,5-Triazin-2-Amine]
hCB2 [1]
  hCB2 displacement of [3H]-CP 55,940 in 10 μM screen (in words): failed to displace, or barely displaced
hCB2 [1]; [6]
  inhibition at 10 µM: 15.6%

## CCOc1nc(NC23CC4CC(CC(C4)C2)C3)nc(N2CCN(CCOCCOCCNC(=O)OC(C)(C)C)CC2)n1 [Compound 10, tert-Butyl N-(2-(2-(2-(4-(4-((Adamantan-1-yl)Amino)-6-Ethoxy-1,3,5-Triazin-2-yl)Piperazin-1-yl)Ethoxy) Ethoxy)Ethyl)Carbamate]
hCB2 [2]; 4 min
  Behaviour in pERK pathway (in words): equivalent efficacies to CP 55,940
hCB2 [2]; 4 min, response above vehicle, normalised to U0126 (0%) and PMA (100%), for 14 efficacy at 10 μM, read-out: pERK (4 min) Emax (±SEM)
  Emax: 10.2%
hCB2 [2]
  EC50: 1070 nM
  logR [log(τ/KA)] (±SEM) pERK: 6.06 (0.02)
  Time of maximal pERK response: 4 min
hCB2 [3]; 1 h stimulation
  EC50: 89.1 nM
hCB2 [3]
  logR [log(τ/KA)] (±SEM) Internalisation: 7.09 (0.10)
hCB2 [4]; 5 μM forskolin
  Behaviour in cAMP pathway (in words): partial agonists
hCB2 [4]; [7]
  EC50: 105 nM
hCB2 [4]; 5 min post-drug, 5 μM forskolin, change relative to forskolin alone (100%), vehicle 0%, 10 and 14 approximate
  cAMP (5 min) Emax (±SEM): –33.0 (0.9)^Δ %
hCB2 [4]
  logR [log(τ/KA)] (±SEM) cAMP: 6.90 (0.10)
hCB2 [1]; [6]
  inhibition at 10 µM: 91.8%
hCB2 [1]
  Reduction in hCB2 binding affinity compared to 15: 2–3 log units
  Ki: 661 nM
hCB1
  CB1 binding extent at 10 μM (%) (±SEM): 16.7 (7.8) %
  CB2 selectivity over CB1 (in words): likely also CB2-selective
HEK Flp-in wt cells; HEK Flp-in wt versus HEK Flp-in hCB2
  Non-hCB2-mediated cAMP effects: fold less potent than cAMP inhibition in hCB2-expressing cells: ~23 fold
hCB2 [5]; relative to CP 55,940
  Internalisation – pERK Bias factor: 2.0
  cAMP – internalisation Bias factor: 1.2
  cAMP – pERK Bias factor: 2.4
  Between-pathway signalling bias (in words): did not demonstrate any indication of between-pathway bias
hCB2 [5]
  Internalisation – pERK ΔΔlogR (±SEM): 0.31 (0.13)
  cAMP – internalisation ΔΔlogR (±SEM): 0.07 (0.16)
  cAMP – pERK ΔΔlogR (±SEM): 0.37 (0.10)

## CCOc1nc(NC2CCCC2)nc(N2CCN(CCCCCCN)CC2)n1 [Compound 5, 4-(4-(6-Aminohexyl)Piperazin-1-yl)-N-Cyclopentyl-6-Ethoxy-1,3,5-Triazin-2-Amine]
hCB2 [1]
  hCB2 displacement of [3H]-CP 55,940 in 10 μM screen (in words): failed to displace, or barely displaced
hCB2 [1]; [6]
  inhibition at 10 µM: 16.6%

## CCOc1nc(NC2CCCC2)nc(N2CCNCC2)n1 [Compound 2, N-cyclopentyl-4-ethoxy-6-(piperazin-1-yl)-1,3,5-triazin-2-amine]
hCB2 [1]
  hCB2 displacement of [3H]-CP 55,940 in 10 μM screen (in words): failed to displace, or barely displaced
hCB2 [1]; [6]
  inhibition at 10 µM: 5.8%
